Patent US11827609B2, “Toll like receptor modulator compounds” (GILEAD SCIENCES, INC., priority 2016, dated 2023)

Key:
Type in all cases: cell-based
[1] = test system: IL12p40; experiment: Cytokine profiling assay in human PBMCs, IL12p40 detection (MSD); conditions: PBMC; cryopreserved human PBMCs, 24 hours at 37° C., half-maximal effect on normalized percent activation
Excerpt: (§1) Cryopreserved human PBMCs isolated from healthy donors were purchased from StemCell Technologies (Vancouver, Canada). Cell culture medium used was RPMI with L-Glutamine (Mediatech, Manassas, Va.) supplemented with 10% fetal bovine serum (Hyclone, GE Healthcare, Logan, Utah) and Penicillin-Streptomycin (Mediatech). Human TNFα, IL12p40, and IFNα2a 384-well Assay capture plates, standards, buffers and processing reagents were obtained from MesoScale Discovery Technologies (MSD; Rockville, Md.).
(§2) Cryopreserved human PBMCs (1×10e8 cells/ml) were thawed at 37° C. and resuspended in 25 mL warm cell culture medium. The cells were pelleted at 200×g (Beckman Avanti J-E) for 5 min and resuspended in 20 mL of fresh culture media. Cells were counted using a Cellometer (Nexcelcom Bioscience), adjusted to 2×10e6 cells, and incubated for 2 hours in an incubator set at 37° C., 5% CO2 to recover from cryopreservation. Compounds were serially diluted in DMSO at half-log steps to generate a 10-point dose range. Using a Bravo pipette equipped with a 384 well head (Agilent), 0.4 μL of compound was transferred to each well of a 384 well black, clear bottom plate (Greiner Bio-One, Germany) containing 30 μL of cell culture medium. Recovered PBMCs were then dispensed into the assay plate at 50 μL per well (100 k cells/well) using the MicroFlow multichannel dispenser (Biotek). Final DMSO concentration was 0.5%. DMSO was used as the negative control. The plates were incubated for 24 hours at 37° C. PBMCs in the assay plate were pelleted by centrifugation (Beckman Avanti J-E) at 200×g for 5 min.
(§3) Using a Biomek FX 384 well pipetting station (Beckman), conditioned culture medium (CCM) from the assay plate was transferred to MSD capture plates customized for each cytokine. For IFNα and IL12-p40 detection, […], of CCM were added directly to each capture plate, respectively. For TNFα detection, CCM was diluted 1:9 in fresh culture medium, and […], of diluted CCM was used. Serially diluted calibration standards for each cytokine were used to generate standard curves and establish assay linearity. The plates were sealed and incubated overnight at 4° C. in a plate shaker (Titer Plate) set at 200 rpm. On the following day, antibodies specific for each cytokine were diluted 1:50 in MSD Diluent 100 antibody dilution buffer. Diluted antibodies were added to corresponding capture plates at 10 μL/well, and incubated at RT for 1-2 hrs in the shaker. The plates were washed with PBST buffer (3×, 60 μl/well) using a Biotek Multiflow plate washer. MSD Read Buffer diluted to 2× in deionized water and 35 μL/well was added via Biomek FX instrument. The plates were read immediately in a MSD6000 reader. Data were normalized to positive and negative controls in each assay plate. AC50 values represent compound concentrations at half-maximal effect based on normalized percent activation and calculated by non-linear regression using Pipeline Pilot software (Accelrys, San Diego, Calif.).

[2] = test system: IFNα; experiment: Cytokine profiling assay in human PBMCs, IFNα detection (MSD); conditions: PBMC; cryopreserved human PBMCs, 24 hours at 37° C., half-maximal effect on normalized percent activation; read-out: IFNa AC50
Excerpt: as §1, §2, §3

[3] = test system: TNFα; experiment: Cytokine profiling assay in human PBMCs, TNFα detection (MSD); conditions: PBMC; cryopreserved human PBMCs, 24 hours at 37° C., half-maximal effect on normalized percent activation; read-out: TNFa AC50
Excerpt: as §1, §2, §3

For CCCC[C@](C)(CNC(C)=O)Nc1nc(N)nc2c1CN(C(C)=O)CC2 [Example 7, (R)—N-(2-((6-acetyl-2-amino-5,6,7,8-tetrahydropyrido[4,3-d]pyrimidin-4-yl)amino)-2-methylhexyl)acetamide], the AC50 [1] was 2.32 µM, the AC50 [2] was > 50 µM and the AC50 [3] was 2.5 µM.
For CCCC[C@](C)(CNC(C)=O)Nc1nc(N)nc2nccnc12 [Example 14, (R)—N-(2-((2-aminopteridin-4-yl)amino)-2-methylhexyl)acetamide], the AC50 [1] was 1.9 µM, the AC50 [2] was > 50 µM and the AC50 [3] was 1.91 µM.
CCCC[C@H](CNC(C)=O)Nc1nc(N)nc2cc(F)ccc12 [Example 11, (R)—N-(2-((2-amino-7-fluoroquinazolin-4-yl)amino)hexyl)acetamide] was tested, and the AC50 [1] was 0.433 µM, the AC50 [2] was > 50 µM and the AC50 [3] was 0.561 µM.
With CCCC[C@](C)(CNC(C)=O)Nc1nc(N)nc2ncccc12 [Example 5, (R)—N-(2-((2-aminopyrido[2,3-d]pyrimidin-4-yl)amino)-2-methylhexyl)acetamide] the AC50 [1] was 0.364 µM, the AC50 [2] was > 50 µM and the AC50 [3] was 0.543 µM.
CCCC[C@](C)(CNC(C)=O)Nc1nc(N)nc2c1CCN(C(C)=O)C2 [Example 8, (R)—N-(2-((7-acetyl-2-amino-5,6,7,8-tetrahydropyrido[3,4-d]pyrimidin-4-yl)amino)-2-methylhexyl)acetamide] was tested, and the AC50 [1] was 3.63 µM, the AC50 [2] was > 50 µM and the AC50 [3] was 4.61 µM.
CCCC[C@H](CNC(C)=O)Nc1nc(N)nc2ccccc12 [Example 10, (R)—N-(2-((2-aminoquinazolin-4-yl)amino)hexyl)acetamide] was tested, and the AC50 [1] was 1.31 µM, the AC50 [2] was > 50 µM and the AC50 [3] was 1.67 µM.
For CCCC[C@](C)(CNC(C)=O)Nc1nc(N)nc2ccsc12 [Example 9], the AC50 [1] was 0.855 µM, the AC50 [2] was > 50 µM and the AC50 [3] was 1.1 µM.
In the case of CCCC[C@](C)(CNC(C)=O)Nc1nc(N)nc2ccccc12 [Example 1, (R)—N-(2-((2-aminoquinazolin-4-yl)amino)-2-methylhexyl)acetamide], the AC50 [1] is reported as 0.0522 µM, the AC50 [2] is reported as > 50 µM and the AC50 [3] is reported as 0.063 µM.
For CCCC[C@H](CNC(C)=O)Nc1nc(N)nc2cc(F)c(F)cc12 [Example 12, (R)—N-(2-((2-amino-6,7-difluoroquinazolin-4-yl)amino)hexyl)acetamide], the AC50 [1] was 12 µM, the AC50 [2] was > 50 µM and the AC50 [3] was 10.2 µM.
In the case of CCCC[C@](C)(CNC(C)=O)Nc1nc(N)nc2cc(F)ccc12 [Example 2, (R)—N-(2-((2-amino-7-fluoroquinazolin-4-yl)amino)-2-methylhexyl)acetamide], the AC50 [1] is reported as 0.00883 µM, the AC50 [2] is reported as > 50 µM and the AC50 [3] is reported as 0.0409 µM.
For CCCC[C@H](CNC(C)=O)Nc1nc(N)nc2ccsc12 [Example 13], the AC50 [1] was 8.29 µM, the AC50 [2] was > 50 µM and the AC50 [3] was 9.52 µM.
In the case of CCCC[C@](C)(CNC(C)=O)Nc1nc(N)nc2c1CCCC2 [Example 6, (R)—N-(2-((2-amino-5,6,7,8-tetrahydroquinazolin-4-yl)amino)-2-methylhexyl)acetamide], the AC50 [1] is reported as 9.58 µM, the AC50 [2] is reported as > 50 µM and the AC50 [3] is reported as 10.2 µM.
In the case of CCCC[C@](C)(CNC(C)=O)Nc1nc(N)nc2cnccc12 [Example 4, (R)—N-(2-((2-aminopyrido[3,4-d]pyrimidin-4-yl)amino)-2-methylhexyl)acetamide], the AC50 [1] is reported as 0.132 µM, the AC50 [2] is reported as > 50 µM and the AC50 [3] is reported as 0.11 µM.
With CCCC[C@](C)(CNC(C)=O)Nc1nc(N)nc2cc(F)c(F)cc12 [Example 3, (R)—N-(2-((2-amino-6,7-difluoroquinazolin-4-yl)amino)-2-methylhexyl)acetamide] the AC50 [1] was 0.703 µM, the AC50 [2] was > 50 µM and the AC50 [3] was 0.812 µM.
